The text below walks through data of patent publication EP0726951B1, “MANUFACTURE AND USE OF POLYPEPTIDES TAGGED USING BINDING MOLECULES” (MEDICAL RESEARCH COUNCIL, priority 1993, dated 1995).

For experiment [1], the target named is T1, calmodulin (Homo sapiens, UniProt P0DP23). The experiment in a line: native gel autoradiography of calmodulin with radiolabelled melatonin. In kind it is binding. The following applies: 15% polyacrylamide gel, 0.5mM CaCl2, no SDS. As for the experimental part: In order to assess this, 1µl calmodulin (lmg/ml) was incubated with 1µCi 2-[^125I]-melatonin in 9µl TBSC and run on a 15% polyacrylamide gel. The gel was as the running gel of Laemmli (Nature 1970 220 680-685), but with 0.5mM CaCl2 and no SDS in both gel and buffer.

Experiment [2] has as its target T1, calmodulin. Particulars: published value; cited from earlier work.
Experiment [3] has as its target T1, calmodulin. Particulars: cited from earlier work.

`COc1ccc2[nH]c([125I])c(CCNC(C)=O)c2c1` [2-[^125I]-melatonin]: the “radioactive band of complex with calmodulin” value at calmodulin [1] is “no radioactive band was detected”.

Take `COc1ccc2[nH]cc(CCNC(C)=O)c2c1` [melatonin]: at calmodulin [1], the “radioactive band of complex with calmodulin” value was “no complex is detected”. Further, the “half-life of the calmodulin-melatonin complex” value on calmodulin [2] was 2 min.

Turning to mastoparan, the Ka at calmodulin [3] (affinity for calmodulin) is 3.3e+09 M⁻¹. Besides, on calmodulin [3] (binds calmodulin), the Kd (usually the free concentration of one partner at which half of the binding sites on the other are occupied at equilibrium, for simple one-to-one binding) was 0.3 nM.
